Measured values published in patent US20090054412A1, “Treatment of Sleep Disorders” (priority 2007, published 2009).
“Also recorded” adds a separate entry of the source. Marks after values point to notes of the source that are not given here.

Legend:
[1] = Example 1: placebo controlled cross-over study, road noise model, healthy volunteers; format: in vivo, human
Experimental: A placebo controlled, randomized, double-blind, cross-over study of the effects of the compound of formula (II) was conducted using a road noise model using 12 healthy volunteers. Specifically, the volunteers were subjected to road traffic noise to imitate the effects of insomnia, and the medication was orally administered 5 minutes before the 11 pm bed time in 1.0 mg, 1.5 mg, 2 mg and 2.5 mg doses in the form of a hard gelatine capsule containing the powdered compound of formula (II). Measurements were then taken at 8, 10 and 12 hours after dosing.

[2] = target: T1, rat GABAA receptors α2β2γ2 (Rattus norvegicus, UniProt P18508+P23576); experiment: Stimulation of GABA (EC3-5)-elicited currents in Xenopus oocytes, two-electrode voltage clamp, α2β2γ2; format: cell-based
T1 construct: expressed in transfected cells; host or cells: Xenopus laevis oocytes, cRNA microinjected
T1 sequence (P23576 29-451): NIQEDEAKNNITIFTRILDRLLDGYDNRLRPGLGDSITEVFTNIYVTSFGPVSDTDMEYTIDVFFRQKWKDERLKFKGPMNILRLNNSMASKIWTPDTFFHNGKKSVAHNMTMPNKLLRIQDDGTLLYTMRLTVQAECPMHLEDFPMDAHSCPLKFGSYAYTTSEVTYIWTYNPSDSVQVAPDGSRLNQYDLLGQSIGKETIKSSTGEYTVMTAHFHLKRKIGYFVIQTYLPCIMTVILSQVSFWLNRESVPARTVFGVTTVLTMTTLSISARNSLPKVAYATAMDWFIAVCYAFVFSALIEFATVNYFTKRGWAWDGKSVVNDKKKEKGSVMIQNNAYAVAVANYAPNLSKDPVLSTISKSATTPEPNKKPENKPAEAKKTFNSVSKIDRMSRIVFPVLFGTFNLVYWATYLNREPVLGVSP
T1 sequence (P63138 25-474 partner limits assumed): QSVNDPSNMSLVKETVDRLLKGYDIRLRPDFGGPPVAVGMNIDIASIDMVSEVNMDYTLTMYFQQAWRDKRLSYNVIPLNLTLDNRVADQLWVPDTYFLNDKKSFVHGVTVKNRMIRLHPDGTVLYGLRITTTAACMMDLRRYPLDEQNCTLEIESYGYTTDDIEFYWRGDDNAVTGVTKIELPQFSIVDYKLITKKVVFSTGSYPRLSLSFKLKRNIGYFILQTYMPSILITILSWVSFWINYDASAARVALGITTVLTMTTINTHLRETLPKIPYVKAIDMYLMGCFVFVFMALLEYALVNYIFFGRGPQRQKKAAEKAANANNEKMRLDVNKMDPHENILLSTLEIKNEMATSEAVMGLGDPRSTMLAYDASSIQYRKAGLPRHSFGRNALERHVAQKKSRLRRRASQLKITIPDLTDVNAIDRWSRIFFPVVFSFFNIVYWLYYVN
T1 sequence (P18508 39-466): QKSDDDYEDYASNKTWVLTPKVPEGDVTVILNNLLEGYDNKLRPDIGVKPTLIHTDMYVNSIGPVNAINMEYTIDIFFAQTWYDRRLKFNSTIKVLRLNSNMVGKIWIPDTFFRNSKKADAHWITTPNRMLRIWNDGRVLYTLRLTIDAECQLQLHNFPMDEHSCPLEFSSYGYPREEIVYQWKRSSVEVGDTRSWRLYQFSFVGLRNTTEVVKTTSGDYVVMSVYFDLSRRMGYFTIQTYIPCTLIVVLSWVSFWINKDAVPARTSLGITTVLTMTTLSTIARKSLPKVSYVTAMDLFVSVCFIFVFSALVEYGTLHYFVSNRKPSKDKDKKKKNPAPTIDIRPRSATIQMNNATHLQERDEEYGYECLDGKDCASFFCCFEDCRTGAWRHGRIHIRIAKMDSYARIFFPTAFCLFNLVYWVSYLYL
From the text: (§1) 7-Chloro-3-(5-dimethylaminomethyl-[1,2,4]oxadiazol-3-yl)-5methyl-4,5-dihydro-imidazol[1,5,-a][1,4]benzodiazepine-6-one was used to test the effects of the compound of formula (II): […]
(§2) Similar procedures were chosen as for the investigation of other GABAA receptor subunit specific substances (e.g., Baur et al., 2005; Mol. Pharmacol. 68, 787-792).
(§3) Lobes of the ovary containing the follicles were obtained by surgical procedures from female Xenopus laevis. Follicles were singled out using a platinum loop. Fifty nL of cRNA solution at a ratio of αx:β2:γ2 of 1:1:5 (3.3-10 nM αx (x=1,2,3,5); 3.3-10 nM β2; 16.7-50 nM γ2) (Boileau et al., 2002; Neuropharmacology 43, 695-700) were microinjected into Xenopus follicles. Several hours after microinjection the follicles were freed of follicular layers and adhering connective tissue by a collagenase/hypertonic shock procedure (Sigel, 1987; J. Physiol.(Land) 386, 73-90). Oocytes were kept at constant 18° C. until measurement (1-4 days) in a modified Barth solution (88 mM NaCl, 1 mM KCl, 2.4 mM NaHCO3, 10 mM Hepes-NaOH (pH 7.5), 0.82 mM MgSO4×7H2O, 0.34 mM Ca(NO3)2×4H2O, 0.41 mM CaCl2×2H2O, 100 U Penicillin/mL, 100 μg Streptomycin/mL, sterile filtered).
(§4) Currents were measured using a home-built amplifier in combination with a xy-recorder or were digitized using a MacLab/200 (AD Instruments) and stored on a computer. Xenopus oocytes were voltage clamped using the two-electrode voltage clamp technique (electrode resistance about 0.8 MΩ) at −80 mV. The medium contained 90 mM NaCl, 1 mM KCl, 1 mM MgCl2, 1 mM CaCl2, 10 mM Na-Hepes (pH 7.4) and 0.5% DMSO.
(§5) GABA was applied for 20-50 seconds without or in combination with other drugs and a washout period of 4 minutes was allowed to ensure full recovery from desensitization, which was experimentally determined. The perfusion solution (6 mL/min) was applied through a glass capillary with an inner diameter of 1.35 mm, the mouth of which was placed about 0.4 mm from the surface of the oocyte. The rate of solution change under our conditions has been estimated 70% within less than 0.5 s (Sigel et al., 1990; Neuron 5, 703-711). The entire perfusion system and the assay chamber were cleaned between drug applications by washing with DMSO.
(§6) Data is given as mean±SD, except in the figures where data is shown for clarity as mean±SEM. Current stimulation was calculated as follows: stimulation (%)=((I(GABA+modulator)−I(GABA))/I(GABA))×100%, where I is the current amplitude. Where indicated, the stimulation was standardized to the stimulation by 1 μM diazepam (100%). To obtain FIGS. 1-4, values for current stimulation obtained at a given concentration of modulator at a given subunit combination were averaged. The data points were fitted with the equation stimulation=efficacy/(1+(potency/concentration of modulator)). The values given in the Tables (Summary) are obtained by fitting individual curves and subsequently averaging efficacy and potency.
(§7) Concentration response curves were also performed with oocytes expressing α2β2γ2, α3β2γ2, or α5β2γ2, after establishing the optimal concentration range as indicated above. […] Averaged data of the individual curves summarizing the effects of the compound of formula (II) are shown below for unstandardized and standardized stimulation.
(§8) Concentration response curves were also performed with oocytes expressing α2β2γ2, α3β2γ2, or α5β2γ2.
(§9) Current stimulation by diazepam was determined in each batch of oocytes as follows. GABA (EC3-5) was applied until a stable response was obtained. Subsequently, GABA was applied in combination with 1 μM diazepam.

[3] = target: T2, rat GABAA receptors α3β2γ2 (Rattus norvegicus, UniProt P18508+P20236); experiment: Stimulation of GABA (EC3-5)-elicited currents in Xenopus oocytes, two-electrode voltage clamp, α3β2γ2; format: cell-based
T2 construct: expressed in transfected cells; host or cells: Xenopus laevis oocytes, cRNA microinjected
T2 sequence (P20236 29-493): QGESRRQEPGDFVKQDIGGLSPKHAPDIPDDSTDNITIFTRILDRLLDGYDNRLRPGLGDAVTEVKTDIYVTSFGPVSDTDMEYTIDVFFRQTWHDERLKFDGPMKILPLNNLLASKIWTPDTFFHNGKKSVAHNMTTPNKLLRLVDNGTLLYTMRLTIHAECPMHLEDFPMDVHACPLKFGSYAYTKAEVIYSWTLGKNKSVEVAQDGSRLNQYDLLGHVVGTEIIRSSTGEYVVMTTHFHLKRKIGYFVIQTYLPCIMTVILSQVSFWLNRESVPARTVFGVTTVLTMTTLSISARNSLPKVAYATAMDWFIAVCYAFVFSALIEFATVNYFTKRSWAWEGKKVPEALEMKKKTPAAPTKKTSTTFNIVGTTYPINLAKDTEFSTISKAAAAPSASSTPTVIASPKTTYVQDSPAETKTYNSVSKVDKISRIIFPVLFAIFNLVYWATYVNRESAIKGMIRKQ
T2 sequence (P63138 25-474 partner limits assumed): as the sequence (P63138 25-474 partner limits assumed) above
T2 sequence (P18508 39-466): as the sequence (P18508 39-466) above
From the text: as §1, §2, §3, §4, §5, §6, §7, §8, §9

[4] = target: T3, rat GABAA receptors α1β2γ2 (Rattus norvegicus, UniProt P18508+P62813); experiment: Stimulation of GABA (EC3-5)-elicited currents in Xenopus oocytes, two-electrode voltage clamp, α1β2γ2; format: cell-based
T3 construct: expressed in transfected cells; host or cells: Xenopus laevis oocytes, cRNA microinjected
T3 sequence (P62813 28-455): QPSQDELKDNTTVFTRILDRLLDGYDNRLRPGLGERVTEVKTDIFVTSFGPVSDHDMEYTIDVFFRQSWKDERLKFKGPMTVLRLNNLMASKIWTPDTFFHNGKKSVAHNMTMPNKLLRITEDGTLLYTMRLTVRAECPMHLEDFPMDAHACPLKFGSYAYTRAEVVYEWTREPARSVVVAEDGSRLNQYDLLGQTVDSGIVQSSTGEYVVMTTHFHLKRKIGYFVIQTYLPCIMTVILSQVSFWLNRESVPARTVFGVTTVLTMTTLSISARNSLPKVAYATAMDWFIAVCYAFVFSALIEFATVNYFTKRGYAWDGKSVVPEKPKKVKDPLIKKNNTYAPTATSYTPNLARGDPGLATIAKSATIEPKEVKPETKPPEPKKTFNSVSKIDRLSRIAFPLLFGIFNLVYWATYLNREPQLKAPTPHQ
T3 sequence (P63138 25-474 partner limits assumed): as the sequence (P63138 25-474 partner limits assumed) above
T3 sequence (P18508 39-466): as the sequence (P18508 39-466) above
From the text: as §1, §2, §3, §4, §5, §6
GABA (EC3-5) was applied to an oocyte expressing α1β2γ2 GABAA receptors several times until the current response was stable. The GABA (EC3-5) refers to the effective concentration of GABA, which produces a response that is 3-5% of the maximal response to high concentrations of GABA. Such a low concentration of GABA is chosen in order to better see the potentiating effect of positive allosteric modulators.
GABA was then applied in combination with various concentrations of the compound of formula (II) between 0.3 nM and 3,000 nM to produce a cumulative concentration response curve. […] In each batch of oocytes the stimulation by 1 μM diazepam was determined in five ocytes, extent of stimulation averaged and defined as 100%. Where indicated, stimulation by the compound of formula (II) in each batch of ocytes was expressed as a percentage of this value in the corresponding batch.
GABA (EC3-5) was applied to an oocyte expressing α1β2γ2 GABAA receptors several times until the current response was stable.

[5] = 1.5, 2.0 & 2.5 mg oral, vs placebo
[6] = all 4 doses (1.0, 1.5, 2 and 2.5 mg oral)
[7] = objective residual effects, 8, 10 and 12 hours after dosing
[8] = GABA EC3-5, mean±SD of individually fitted curves, read-out: Potency
[9] = standardized to stimulation by 1 μM diazepam (100%)
[10] = unstandardized current stimulation

With `CN(C)Cc1nc(-c2ncn3c2CN(C)C(=O)c2c(Cl)cccc2-3)no1` [compound of formula (II), 7-chloro-3-(5-dimethylaminomethyl-[1,2,4]oxadiazol-3-yl)-5-methyl-4,5-dihydro-imidazo[1,5-a][1,4]benzodiazepine-6-one] the “Subjective assessment (LARS): Coordination” value ([1]; 2.5 mg) was “No impairment”, the “Subjective assessment (LARS): Mood” value ([1]; 2.5 mg) was “No impairment” and the “Subjective assessment (LARS): Sedation” value ([1]; 2.5 mg) was “No impairment”. The “WASO 2nd half night (hrs 5-8)” value [1, 5] was “Significantly reduced”, the “WASO full night (hrs 0-8)” value [1, 5] was “Significantly reduced” and the “Sleep Efficiency Index” value ([1]; 2.0 & 2.5 mg oral, vs placebo) was “Significantly improved”. The “Total Sleep Time” value ([1]; 2.0 & 2.5 mg oral, vs placebo) was “Significantly improved”, the “Performance on cognitive or psychomotor tests” value ([1]; 8 to 12 hours after dose, data corrected for multiple comparisons) was “no impairment of performance” and the “Leeds Sleep Evaluation Questionnaire: Quality of sleep” value ([1]; all 4 doses) was “Significantly improved at all”. For the same compound, the “Slow Wave Sleep (% and duration)” value [1, 6] was “Significantly increased”, the “Stage IV Sleep (% and duration)” value [1, 6] was “Significantly increased” and the “Sternberg Memory Task (STM)” value ([1]; at 8 or 12 h) was “No effect”. The “Continuous Tracking Task - reaction time” value ([1]; at 10 or 12 h) was “No effect”, the “Continuous Tracking Task - deviation” value ([1]; at 8 h) was “No effect” and the “Leeds Sleep Evaluation Questionnaire: Early morning behaviour (clumsiness & tiredness)” value ([1]; human, in vivo) was “No effect”. The “Leeds Sleep Evaluation Questionnaire: Ease of awakening” value ([1]; human, in vivo) was “No effect”, the “Choice Reaction Time - Motor Component” value ([1]; objective residual effects) was “No effect” and the “Critical Flicker Fusion Test” value ([1]; objective residual effects) was “No effect”. For the same compound, the “Word Recall - delayed (WRd)” value ([1]; objective residual effects) was “No effect”, the “Rapid Visual Information Processing” value [1, 7] was “No effect” and the “Sustained Attention to Response (SART)” value [1, 7] was “No effect”. For the same compound, the “Leeds Sleep Evaluation Questionnaire: Getting to sleep” value ([1]; road traffic noise model considered nondiscriminant for sleep onset measures) was “(No effect)*”, the EC50 [2, 8] was 62 ± 21 nM and the “Standardized Efficacy” value [2, 9] was 31 ± 6% (n = 5). For the same compound, the Efficacy [2, 10] was 90 ± 16% (n = 5), the EC50 [3, 8] was 84 ± 15 nM and the “Standardized Efficacy” value [3, 9] was 41 ± 8% (n = 5). The Efficacy [3, 10] was 171 ± 33% (n = 5), the “Intrinsic activity / type of allosteric modulation” value ([4]; GABAA receptor benzodiazepine site, relative to diazepam) was “partial positive allosteric modulator; also recorded: partial agonist” and the Receptor subtype preference ([4]; at concentrations <100 nM, in comparison to α5β2γ2, α3β2γ2 and α2β2γ2) was “preference for α1β2γ2 GABAA receptors”. For the same compound, the EC50 ([4]; α1β2γ2, GABA EC3-5, mean±SD of individually fitted curves, read-out: Potency) was 18 ± 6 nM, the “Standardized Efficacy” value ([4]; α1β2γ2, standardized to stimulation by 1 μM diazepam (100%)) was 62 ± 10% (n = 4) and the Efficacy ([4]; α1β2γ2, unstandardized current stimulation) was 123 ± 19% (n = 4).
